# Experimental data from patent US20230357310A1, “Saponin derivatives with improved therapeutic window” (priority 2019, published 2023).
# System: EGFR expressing cells (HeLa)
# Assay: cells
# Details: summary statement in the description
row,SMILES,endosomal escape enhancing activity (enhancement of cytotoxicity of ADC / effector molecules)
1,CC(=O)OC1C(C)OC(OC2C(C)OC(OC(=O)[C@]34CCC(C)(C)CC3C3=CCC5[C@@]6(C)CC[C@H](OC7OC(C(=O)NC(C)(CO)CO)C(O)C(OC8OCC(O)C(O)C8O)C7OC7OC(CO)C(O)C(O)C7O)[C@@](C)(C=O)C6CC[C@@]5(C)[C@]3(C)C[C@H]4O)C(OC3OC(C)C(OC4OCC(O)C(OC5OC(CO)C(O)C(O)C5O)C4O)C(O)C3O)C2O)C(O)C1OC1OCC(O)C(O)C1O (stereo partly drawn) [Molecule 3A],display activity
2,CC(=O)OC1C(C)OC(OC2C(C)OC(OC(=O)[C@]34CCC(C)(C)CC3C3=CCC5[C@@]6(C)CC[C@H](OC7OC(C(=O)NCCN8C(=O)C=CC8=O)C(O)C(OC8OCC(O)C(O)C8O)C7OC7OC(CO)C(O)C(O)C7O)[C@@](C)(CO)C6CC[C@@]5(C)[C@]3(C)C[C@H]4O)C(OC3OC(C)C(OC4OCC(O)C(OC5OC(CO)C(O)C(O)C5O)C4O)C(O)C3O)C2O)C(O)C1OC1OCC(O)C(O)C1O (stereo partly drawn) [Molecule 20],have the capacity to enhance the cytotoxic effect
3,CC1OC(OC2C(C)OC(OC(=O)[C@]34CCC(C)(C)CC3C3=CCC5[C@@]6(C)CC[C@H](OC7OC(C(=O)NCCN8C(=O)C=CC8=O)C(O)C(OC8OCC(O)C(O)C8O)C7OC7OC(CO)C(O)C(O)C7O)[C@@](C)(C=O)C6CC[C@@]5(C)[C@]3(C)C[C@H]4O)C(OC3OC(C)C(OC4OCC(O)C(OC5OC(CO)C(O)C(O)C5O)C4O)C(O)C3O)C2O)C(O)C(OC2OCC(O)C(O)C2O)C1O (stereo partly drawn) [Molecule 19],display activity
4,CC(=O)OC1C(C)OC(OC2C(C)OC(OC(=O)C34CCC(C)(C)CC3C3=CCC5C6(C)CCC(OC7OC(C(=O)NC(C)(CO)CO)C(O)C(OC8OCC(O)C(O)C8O)C7OC7OC(CO)C(O)C(O)C7O)C(C)(C=NNC(=O)CCCCCN7C(=O)C=CC7=O)C6CCC5(C)C3(C)CC4O)C(OC3OC(C)C(OC4OCC(O)C(OC5OC(CO)C(O)C(O)C5O)C4O)C(O)C3O)C2O)C(O)C1OC1OCC(O)C(O)C1O (stereo not drawn) [Molecule 14],have the capacity to enhance the cytotoxic effect
5,CC(=O)OC1C(C)OC(OC2C(C)OC(OC(=O)[C@]34CCC(C)(C)CC3C3=CCC5[C@@]6(C)CC[C@H](OC7OC(C(=O)NC(C)(CO)CO)C(O)C(OC8OCC(O)C(O)C8O)C7OC7OC(CO)C(O)C(O)C7O)[C@@](C)(CO)C6CC[C@@]5(C)[C@]3(C)C[C@H]4O)C(OC3OC(C)C(OC4OCC(O)C(OC5OC(CO)C(O)C(O)C5O)C4O)C(O)C3O)C2O)C(O)C1OC1OCC(O)C(O)C1O (stereo partly drawn) [Molecule 9],have the capacity to enhance the cytotoxic effect
6,CC1OC(OC2C(C)OC(OC(=O)[C@]34CCC(C)(C)CC3C3=CCC5[C@@]6(C)CC[C@H](OC7OC(C(=O)NC(C)(CO)CO)C(O)C(OC8OCC(O)C(O)C8O)C7OC7OC(CO)C(O)C(O)C7O)[C@@](C)(C=O)C6CC[C@@]5(C)[C@]3(C)C[C@H]4O)C(OC3OC(C)C(OC4OCC(O)C(OC5OC(CO)C(O)C(O)C5O)C4O)C(O)C3O)C2O)C(O)C(OC2OCC(O)C(O)C2O)C1O (stereo partly drawn) [Molecule 11],display activity

# System: not listed separately
# Assay: Critical micellar concentration (ANS fluorescence)
# Assay type: physicochemical
# Details: SO saponins, determined in PBS, Table A7
# Description: The critical micellar concentration (CMC) of saponins derived from Saponaria officinalis (SO) (Table A7) and derived from Quillaja saponaria (QS) (Table A8, and Table A9) was determined by the method of DeVendittis et al. (A fluorimetric method for the estimation of the critical micelle concentration of surfactants, Analytical Biochemistry, Volume 115, Issue 2, August 1981, Pages 278-286) as follows:
# The emission spectrum of 8-Anilinonaphthalene-1-sulfonic acid (ANS) in either purified water (MQ) or PBS (Dulbecco's PBS+/+) was determined at dry weight concentrations of saponins ranging from 1 to 1400 μM to cover the range below and above the CMC. Above the CMC, the fluorescence yield of ANS increases and the wavelength of maximum emission decreases due to portioning of the fluorescent dye into micelles. Fluorescence yields were recorded on a Fluoroskan Ascent FL (Thermo Scientific) at an excitation wavelength of 355 nm, and an emission wavelength of 460 nm. 6 μg at a concentration of 75.86 μM of ANS were used per sample and measurement.
row,SMILES,CMC [µM]
1,CC1OC(OC2C(C)OC(OC(=O)[C@]34CCC(C)(C)CC3C3=CCC5[C@@]6(C)CC[C@H](OC7OC(C(=O)NCCN8C(=O)C=CC8=O)C(O)C(OC8OCC(O)C(O)C8O)C7OC7OC(CO)C(O)C(O)C7O)[C@@](C)(CO)C6CC[C@@]5(C)[C@]3(C)C[C@H]4O)C(OC3OC(C)C(OC4OCC(O)C(OC5OC(CO)C(O)C(O)C5O)C4O)C(O)C3O)C2O)C(O)C(OC2OCC(O)C(O)C2O)C1O (stereo partly drawn) [SO1861-(Glu-AEM)-(Ald-OH)-(Ac—OH)],>150
2,CC1OC(OC2C(C)OC(OC(=O)[C@]34CCC(C)(C)CC3C3=CCC5[C@@]6(C)CC[C@H](OC7OC(C(=O)O)C(O)C(OC8OCC(O)C(O)C8O)C7OC7OC(CO)C(O)C(O)C7O)[C@@](C)(CO)C6CC[C@@]5(C)[C@]3(C)C[C@H]4O)C(OC3OC(C)C(OC4OCC(O)C(OC5OC(CO)C(O)C(O)C5O)C4O)C(O)C3O)C2O)C(O)C(OC2OCC(O)C(O)C2O)C1O (stereo partly drawn) [SO1861-(Ald-OH)-(Ac—OH)],>280
3,CC1OC(OC2C(C)OC(OC(=O)C34CCC(C)(C)CC3C3=CCC5C6(C)CCC(OC7OC(C(=O)O)C(O)C(OC8OCC(O)C(O)C8O)C7OC7OC(CO)C(O)C(O)C7O)C(C)(C=NNC(=O)CCCCCN7C(=O)C=CC7=O)C6CCC5(C)C3(C)CC4O)C(OC3OC(C)C(OC4OCC(O)C(OC5OC(CO)C(O)C(O)C5O)C4O)C(O)C3O)C2O)C(O)C(OC2OCC(O)C(O)C2O)C1O (stereo not drawn) [SO1861-(Ald-EMCH)-(Ac—OH)],>300
4,CC(=O)OC1C(C)OC(OC2C(C)OC(OC(=O)C34CCC(C)(C)CC3C3=CCC5C6(C)CCC(OC7OC(C(=O)NC(C)(CO)CO)C(O)C(OC8OCC(O)C(O)C8O)C7OC7OC(CO)C(O)C(O)C7O)C(C)(C=NNC(=O)CCCCCN7C(=O)C=CC7=O)C6CCC5(C)C3(C)CC4O)C(OC3OC(C)C(OC4OCC(O)C(OC5OC(CO)C(O)C(O)C5O)C4O)C(O)C3O)C2O)C(O)C1OC1OCC(O)C(O)C1O (stereo not drawn) [SO1861-(Ald-EMCH)-(Glu-AMPD)],>30

# Same assay, conditions: comparison in words
row,SMILES,CMC compared with native (underivatised) saponin
1,CC(=O)OC1C(C)OC(OC2C(C)OC(OC(=O)[C@]34CCC(C)(C)CC3C3=CCC5[C@@]6(C)CC[C@H](OC7OC(C(=O)NC(C)(CO)CO)C(O)C(OC8OCC(O)C(O)C8O)C7OC7OC(CO)C(O)C(O)C7O)[C@@](C)(CO)C6CC[C@@]5(C)[C@]3(C)C[C@H]4O)C(OC3OC(C)C(OC4OCC(O)C(OC5OC(CO)C(O)C(O)C5O)C4O)C(O)C3O)C2O)C(O)C1OC1OCC(O)C(O)C1O (stereo partly drawn) [SO1861-(Ald-OH)-(Glu-AMPD)],lower CMC values
2,CC1OC(OC2C(C)OC(OC(=O)[C@]34CCC(C)(C)CC3C3=CCC5[C@@]6(C)CC[C@H](OC7OC(C(=O)NCCN8C(=O)C=CC8=O)C(O)C(OC8OCC(O)C(O)C8O)C7OC7OC(CO)C(O)C(O)C7O)[C@@](C)(C=O)C6CC[C@@]5(C)[C@]3(C)C[C@H]4O)C(OC3OC(C)C(OC4OCC(O)C(OC5OC(CO)C(O)C(O)C5O)C4O)C(O)C3O)C2O)C(O)C(OC2OCC(O)C(O)C2O)C1O (stereo partly drawn) [SO1861-(Glu-AEM)-(Ac—OH)],lower CMC values
3,CC(=O)OC1C(C)OC(OC2C(C)OC(OC(=O)C34CCC(C)(C)CC3C3=CCC5C6(C)CCC(OC7OC(C(=O)O)C(O)C(OC8OCC(O)C(O)C8O)C7OC7OC(CO)C(O)C(O)C7O)C(C)(C=NNC(=O)CCCCCN7C(=O)C=CC7=O)C6CCC5(C)C3(C)CC4O)C(OC3OC(C)C(OC4OCC(O)C(OC5OC(CO)C(O)C(O)C5O)C4O)C(O)C3O)C2O)C(O)C1OC1OCC(O)C(O)C1O (stereo not drawn) [Molecule 2],increased CMC
4,CC(=O)OC1C(C)OC(OC2C(C)OC(OC(=O)[C@]34CCC(C)(C)CC3C3=CCC5[C@@]6(C)CC[C@H](OC7OC(C(=O)O)C(O)C(OC8OCC(O)C(O)C8O)C7OC7OC(CO)C(O)C(O)C7O)[C@@](C)(CO)C6CC[C@@]5(C)[C@]3(C)C[C@H]4O)C(OC3OC(C)C(OC4OCC(O)C(OC5OC(CO)C(O)C(O)C5O)C4O)C(O)C3O)C2O)C(O)C1OC1OCC(O)C(O)C1O (stereo partly drawn) [SO1861-Ald-OH],higher CMC values
5,CC1OC(OC2C(C)OC(OC(=O)[C@]34CCC(C)(C)CC3C3=CCC5[C@@]6(C)CC[C@H](OC7OC(C(=O)NC(C)(CO)CO)C(O)C(OC8OCC(O)C(O)C8O)C7OC7OC(CO)C(O)C(O)C7O)[C@@](C)(C=O)C6CC[C@@]5(C)[C@]3(C)C[C@H]4O)C(OC3OC(C)C(OC4OCC(O)C(OC5OC(CO)C(O)C(O)C5O)C4O)C(O)C3O)C2O)C(O)C(OC2OCC(O)C(O)C2O)C1O (stereo partly drawn) [SO1861-(Ac—OH)-(Glu-AMPD)],lower CMC values
6,CC1OC(OC2C(C)OC(OC(=O)[C@]34CCC(C)(C)CC3C3=CCC5[C@@]6(C)CC[C@H](OC7OC(C(=O)O)C(O)C(OC8OCC(O)C(O)C8O)C7OC7OC(CO)C(O)C(O)C7O)[C@@](C)(C=O)C6CC[C@@]5(C)[C@]3(C)C[C@H]4O)C(OC3OC(C)C(OC4OCC(O)C(OC5OC(CO)C(O)C(O)C5O)C4O)C(O)C3O)C2O)C(O)C(OC2OCC(O)C(O)C2O)C1O (stereo partly drawn) [SO1861-Ac—OH],higher CMC values
7,CC(=O)OC1C(C)OC(OC2C(C)OC(OC(=O)[C@]34CCC(C)(C)CC3C3=CCC5[C@@]6(C)CC[C@H](OC7OC(C(=O)NCCN8C(=O)C=CC8=O)C(O)C(OC8OCC(O)C(O)C8O)C7OC7OC(CO)C(O)C(O)C7O)[C@@](C)(CO)C6CC[C@@]5(C)[C@]3(C)C[C@H]4O)C(OC3OC(C)C(OC4OCC(O)C(OC5OC(CO)C(O)C(O)C5O)C4O)C(O)C3O)C2O)C(O)C1OC1OCC(O)C(O)C1O (stereo partly drawn) [SO1861-(Glu-AEM)-(Ald-OH)],lower CMC values
8,CC(=O)OC1C(C)OC(OC2C(C)OC(OC(=O)C34CCC(C)(C)CC3C3=CCC5C6(C)CCC(OC7OC(C(=O)NC(C)(CO)CO)C(O)C(OC8OCC(O)C(O)C8O)C7OC7OC(CO)C(O)C(O)C7O)C(C)(C=NNC(=O)CCCCCN7C(=O)C=CC7=O)C6CCC5(C)C3(C)CC4O)C(OC3OC(C)C(OC4OCC(O)C(OC5OC(CO)C(O)C(O)C5O)C4O)C(O)C3O)C2O)C(O)C1OC1OCC(O)C(O)C1O (stereo not drawn) [SO1861-(Ald-EMCH)-(Glu-AMPD)],lower CMC values
9,CC(=O)OC1C(C)OC(OC2C(C)OC(OC(=O)[C@]34CCC(C)(C)CC3C3=CCC5[C@@]6(C)CC[C@H](OC7OC(C(=O)NC(C)(CO)CO)C(O)C(OC8OCC(O)C(O)C8O)C7OC7OC(CO)C(O)C(O)C7O)[C@@](C)(C=O)C6CC[C@@]5(C)[C@]3(C)C[C@H]4O)C(OC3OC(C)C(OC4OCC(O)C(OC5OC(CO)C(O)C(O)C5O)C4O)C(O)C3O)C2O)C(O)C1OC1OC(C)C(O)C(O)C1O (stereo partly drawn) [SO1861-Glu-AMPD],lower CMC values

# Same assay, conditions: comparison in words; listed as SO1861-(Ald-EMCH)—(Ac—OH)
row,SMILES,CMC compared with native (underivatised) saponin
1,CC1OC(OC2C(C)OC(OC(=O)C34CCC(C)(C)CC3C3=CCC5C6(C)CCC(OC7OC(C(=O)O)C(O)C(OC8OCC(O)C(O)C8O)C7OC7OC(CO)C(O)C(O)C7O)C(C)(C=NNC(=O)CCCCCN7C(=O)C=CC7=O)C6CCC5(C)C3(C)CC4O)C(OC3OC(C)C(OC4OCC(O)C(OC5OC(CO)C(O)C(O)C5O)C4O)C(O)C3O)C2O)C(O)C(OC2OCC(O)C(O)C2O)C1O (stereo not drawn) [SO1861-(Ald-EMCH)-(Ac—OH)],increased CMC values

# Same assay, conditions: comparison in words; listed as SO1861-(Ald-OH)—(Ac—OH)
row,SMILES,CMC compared with native (underivatised) saponin
1,CC1OC(OC2C(C)OC(OC(=O)[C@]34CCC(C)(C)CC3C3=CCC5[C@@]6(C)CC[C@H](OC7OC(C(=O)O)C(O)C(OC8OCC(O)C(O)C8O)C7OC7OC(CO)C(O)C(O)C7O)[C@@](C)(CO)C6CC[C@@]5(C)[C@]3(C)C[C@H]4O)C(OC3OC(C)C(OC4OCC(O)C(OC5OC(CO)C(O)C(O)C5O)C4O)C(O)C3O)C2O)C(O)C(OC2OCC(O)C(O)C2O)C1O (stereo partly drawn) [SO1861-(Ald-OH)-(Ac—OH)],increased CMC values
